Measurements: patent US9682928B2 (NeuroPro Therapeutics, Inc., priority 2009, dated 2017)
Like-named read-outs stand apart in the source and are kept apart here.

Experiments:
adult mice (C57/B16) = experiment: Mesial temporal lobe epilepsy model (mice), hippocampal discharges; type: in vivo, mouse; settings: 50 mg/kg for NTP-2014 and NTP-2026; 150 mg/kg for NTP-2024, NTP-2006, NTP-1007, NTP-1003
Experimental: Antiepileptic protocol: Up to eight adult mice (C57/B16) are injected with kainate (1 nmol in 50 nl) and are implanted with a bipolar electrode in the dorsal hippocampus using stereotaxic techniques under general anesthesia. […] Drug conditions are counter-balanced, the animals being used as their own controls. Digital EEG recordings are performed in freely moving animals for 20 min pre-injection and 80 min post-injection. The effects of the injected compound are compared versus vehicle injections and reference period (pre-dose). Upon completion of the experiment, standard histological analysis are performed to verify electrode location, cell losses in CA1, CA3 and hilus, as well as dentate gyrus dispersion. Only animals with all characteristics of MTLE are used in data analysis. […] The results below are normalized to the pre-dose condition for each of the treatment group including DMSO and saline vehicle controls. Doses of test article compounds were 50 mg/kg for NTP-2014 and NTP-2026 and 150 mg/kg for NTP-2024, NTP-2006, NTP-1007, and NTP-1003. Therefore the bumetanide, furosemide, piretanide, azosemide, and torsemide esters and amide analogs described herein may be used in therapeutic methods to treat seizures.

Male Rj: NMRI mice = experiment: Formalin paw test (late phase) in the mouse; type: in vivo
Experimental: The method described herein detects analgesic/anti-inflammatory activity, generally used to test compounds for pain relief, in particular diabetic neuropathy or nociceptive neuropathy. See Wheeler-Aceto, et al. (1991) Psychopharmacology 104: 35-44.
Mice were given an intraplantar injection of 5% formalin (25 μl) into the posterior left paw. This treatment induces paw licking in control animals. Mice were briefly observed at 1 minute intervals between 15 and 50 minutes after the injection of formalin and the number of occasions that the mice were observed licking the injected paw was recorded. There were 10 mice per group and the test was performed “blind.”
The experiment included 11 groups. Data was analyzed by comparing treated groups with vehicle control using unpaired Mann-Whitney U tests.
Gabapentin (100 mg/kg i.p.) administered under the same experimental conditions, was used as reference substance. The experiment included several groups. Data was analyzed by comparing treated groups with vehicle control using unpaired Mann-Whitney U tests.

Sprague-Dawley rats = experiment: Kainic acid induced seizures in rats; type: in vivo, rat; set-up: key to Seizures Severity Mean ± SD (grade 0 to IV): seizure grade 0 = no response to IV = status epilepticus; settings: 20 μmoles/kg IP; for Seizures Severity Mean ± SD (grade 0 to IV) / Seizures Mean ± SD (1 = yes, 0 = no): KA 15 mg/kg i.p.; for Seizures Mean ± SD (1 = yes, 0 = no): 2 hours; for change in vivo at 20 µmol/kg: Rattus norvegicus, 2 h, vs DMSO control
Experimental: Formulation of kainic acid was performed by NTS as a stock solution by reconstituting kainic acid with (100%) saline that was stored at 4° C. Vehicle control received saline solution. […] The research investigators were blinded to the treatment groups.
Solutions were prepared fresh daily just prior to use; dosing of all 10 rats with any given compound occurred on a single day after preparing the dosing solution. […] Unused remaining dosing solutions were stored frozen.
Animals were maintained in a temperature- and light-controlled environment in accord with the principles and procedures of the National Institutes of Health Guidelines for Care and Use of Laboratory Animals. Seizures were induced in adult, male Sprague-Dawley rats (260-300 g) by injection of KA (15 mg/kg, i.p.). In addition, animals were injected with test compounds following kainic acid to determine the effects on protection from epilepsy. Animals were monitored behaviorally for seizures for 2 hours after injection.
Seizure activity was initially characterized as either yes (1) or no (0) within a 2 hour period following injection of KA. A seizure severity grade was assigned based on the maximal response achieved on a scale from 0 to IV as follows: 0, no response; I, single limb clonus and scratching; II, multiple limb clonus and staggering gait; […], limb clonus, tonic extension of limbs and falling; IV, continuous grade III seizures for longer than 30 min (status epilepticus).
The results were expressed as the mean±standard deviation (SD). The significance of difference in the epileptic data was analyzed using a one-way analysis of variance (ANOVA) followed by Fisher's post hoc test. Repeated-measures ANOVA were computed on the monitoring data and the significance of the difference among groups were evaluated by Fisher's post hoc test.
All groups were subjected to kainic acid.
The induction of seizures in rats with kainic acid was determined as either yes seizures (1) or no seizures (0).

mouse = experiment: Formalin test (acute/early and late phase) in mice; type: in vivo; settings: 150 mg/kg i.p., mice
Experimental: The formalin test was performed according to the method of Tjølsen, et al. (October 1992) “The formalin test: an evaluation of the method.” Pain 51(1): 5-17. An injection of 0.5% formalin is made into the plantar region of the right hind paw of a mouse. This elicits a distinct behavioral profile in response to the formalin injection characterized by the mouse licking the affected paw. The behavior is characteristically biphasic in nature. For example, immediately following the injection the mouse intensely licks the paw for approximately 5-10 minutes (“min.”) This initial behavior was considered phase 1 (acute) and is thought to be mediated primarily by chemical activation of local C-fibers. The acute phase is followed by a brief latent (usually <5 min) period where there is little or no behavioral activity. A more prolonged (about 20 to 30 min) period of licking then ensues which constitutes phase 2 of the response (late phase). See e.g., Tjølsen, et al. (Feb. 7, 1991) “Antinociceptive effect of paracetamol in rats is partly dependent on spinal serotonergic systems. Eur J Pharmacol. 193(2): 193-201 and Tjølsen, et al. (June 1991) Lesions of bulbo-spinal serotonergic or noradrenergic pathways reduce nociception as measured by the formalin test. Acta Physiol Scand. 142(2): 229-36, the disclosures of each of which are hereby incorporated by reference in its entirety.
It is in these tubes that mice are later observed for the licking activity for the duration of the experiment. Following the conditioning, the test substance was administered i.p. in a dose equivalent to the MES ED50 and the mouse returned to its home tube. At the TPE of the drug, the formalin is injected subdermally into the plantar surface of the right hind foot. It is given in a volume of 20 μl with a 27 gauge stainless steel needle attached to a Hamilton syringe. The bevel of the needle was placed facing down toward the skin surface. […] The cumulative length of licking for each 2-min time period was measured. […] Animals are euthanized following the conclusion of the experiment.
Area under the curve (AUC) and subsequent percent of control for drug-treated animal groups is determined using the GraphPad Prism Version 3.03. Total AUC was calculated for both the test and control groups for both the acute and inflammatory phases. The AUC for individual animals for each phase was also calculated and converted to percentage of total AUC of control. The average and S.E.M. for both the drug treated and control percentages were calculated and tested for significant difference.

Na+K+Cl− co-transporter = molecular target: T1, Na+K+Cl− co-transporter (Rattus norvegicus, UniProt E9PTX9); experiment: Na+K+Cl− cotransporter assay, 86Rb uptake in A7r5 cells; type: cell-based; settings: 10 minutes at 37° C.; for inhibition at 10 µM: read-out: % Inhibition of Control Values; for remaining activity at 10 µM: read-out: % of Control Value
T1 construct: endogenous in cells; host or cells: A7r5 cells
T1 sequence (E9PTX9 1-1203): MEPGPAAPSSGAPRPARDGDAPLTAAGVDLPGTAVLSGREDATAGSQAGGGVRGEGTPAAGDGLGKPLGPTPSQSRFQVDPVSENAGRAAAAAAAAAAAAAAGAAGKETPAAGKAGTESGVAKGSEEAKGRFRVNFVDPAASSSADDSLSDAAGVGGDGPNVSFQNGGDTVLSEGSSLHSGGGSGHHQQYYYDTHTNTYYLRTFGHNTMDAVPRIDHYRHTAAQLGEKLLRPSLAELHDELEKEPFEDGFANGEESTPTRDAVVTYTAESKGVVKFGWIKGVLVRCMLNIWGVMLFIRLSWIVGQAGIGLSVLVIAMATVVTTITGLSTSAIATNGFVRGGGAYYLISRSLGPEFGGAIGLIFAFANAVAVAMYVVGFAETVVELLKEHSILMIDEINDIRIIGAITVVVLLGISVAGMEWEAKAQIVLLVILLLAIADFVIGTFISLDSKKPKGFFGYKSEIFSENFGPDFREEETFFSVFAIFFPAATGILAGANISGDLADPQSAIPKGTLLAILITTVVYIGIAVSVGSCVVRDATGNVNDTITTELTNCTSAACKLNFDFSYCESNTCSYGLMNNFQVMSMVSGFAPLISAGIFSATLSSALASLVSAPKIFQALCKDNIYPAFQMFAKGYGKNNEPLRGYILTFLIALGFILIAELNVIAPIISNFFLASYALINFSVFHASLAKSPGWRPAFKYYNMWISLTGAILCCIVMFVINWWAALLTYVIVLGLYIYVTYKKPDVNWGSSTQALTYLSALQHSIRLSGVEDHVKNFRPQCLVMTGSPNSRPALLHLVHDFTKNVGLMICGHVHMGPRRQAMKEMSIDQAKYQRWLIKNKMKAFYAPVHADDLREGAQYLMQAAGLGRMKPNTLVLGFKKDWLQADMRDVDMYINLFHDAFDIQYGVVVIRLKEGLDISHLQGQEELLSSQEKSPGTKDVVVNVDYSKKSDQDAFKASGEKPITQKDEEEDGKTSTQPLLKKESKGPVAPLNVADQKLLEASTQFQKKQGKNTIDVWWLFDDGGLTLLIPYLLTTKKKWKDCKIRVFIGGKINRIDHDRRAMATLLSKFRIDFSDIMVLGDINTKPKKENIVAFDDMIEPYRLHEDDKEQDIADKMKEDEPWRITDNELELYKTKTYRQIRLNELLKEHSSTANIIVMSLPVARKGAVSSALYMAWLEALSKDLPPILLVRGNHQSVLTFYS
Experimental: Na^+K^+Cl^− co-transporter activity was measured in vitro in A7r5 cells by measuring their uptake of ^86Rb (0.2 μCi) in 10 minutes at 37° C. as detected by scintillation counting. See Chassande, et al. (1988) “The Na^+/K^+/Cl^− Cotransport in C6 glioma cells. Properties and role in volume regulation.” Eur. J. Biochem. 171: 425433.

[1] = read-out: Percent reduction in Seizures
[2] = read-out: Percent reduction in Seizures Severity

CCN(CC)C(=O)c1cc(S(N)(=O)=O)c(Cl)cc1NCc1ccco1 [NTP-1007, N,N-Diethyl 5-Aminosulfonyl-4-chloro-2-[(2-furanylmethyl)amino]benzamide]
Cumulative duration of hippocampal discharges (adult mice (C57/B16)): decreased | Number of hippocampal discharges (adult mice (C57/B16)): decreased | Licking Score % Pain Decrease (Male Rj: NMRI mice; 50 μmol/kg i.p.): 9% | Licking Score % Pain Decrease (Male Rj: NMRI mice; 250 μmol/kg i.p.): 13% | Licking Score % Pain Decrease (Male Rj: NMRI mice; 500 μmol/kg i.p.): 66% | Anti-inflammatory and analgesic effects in formalin paw test (FIG. 16) (Male Rj: NMRI mice; 50, 250, 500 μmole/kg): show anti-inflammatory and analgesic effects | Licking Score (15 to 50 minutes post-formalin injection) % Change from Control (Male Rj: NMRI mice; i.p. 30 minutes before the test, 50 μmol/kg (NTP-2006 23.9, NTP-2024 21.7, NTP-1007 19.3, NTP-2014 21, NTP-2026 23.1 mg/kg)): −9% | Licking Score (15 to 50 minutes post-formalin injection) % Change from Control (Male Rj: NMRI mice; i.p., 250 μmol/kg (NTP-2006 119, NTP-2024 108, NTP-1007 96.5, NTP-2014 105, NTP-2026 116 mg/kg)): −13% | Licking Score (15 to 50 minutes post-formalin injection) % Change from Control (Male Rj: NMRI mice; i.p., 500 μmol/kg (NTP-2006 239, NTP-2024 217, NTP-1007 193, NTP-2014 210, NTP-2026 231 mg/kg)): −66%

CCCCNc1cc(C(=O)N(Cc2ccccc2)Cc2ccccc2)cc(S(N)(=O)=O)c1Oc1ccccc1 [NTP-2008, N,N-Dibenzyl 3-Aminosulfonyl-5-butylamino-4-phenoxybenzamide]
Seizures Severity Mean ± SD (grade 0 to IV) (Sprague-Dawley rats): 0.1000 ± 0.3162 | Seizures Mean ± SD (1 = yes, 0 = no) (Sprague-Dawley rats): 0.1000 ± 0.3162 | change in vivo at 20 µmol/kg (Sprague-Dawley rats; [1]): -88.9% | change in vivo at 20 µmol/kg (Sprague-Dawley rats; [2]): -95.8% | % of Control, Acute (mouse): 63.69% | % of Control, Late Phase (mouse): 10.66% | Treated (AUC of licking time), Acute (mouse): 73.94 | Treated (AUC of licking time), Late Phase (mouse): 66.42 | inhibition at 10 µM (Na+K+Cl− co-transporter): 17% | remaining activity at 10 µM (Na+K+Cl− co-transporter): 82.8%

CCCCNc1cc(C(=O)OCC(=O)N(C)C)cc(S(N)(=O)=O)c1Oc1ccccc1 [NTP-2011, N,N-Dimethylaminocarbonylmethyl 3-Aminosulfonyl-5-butylamino-4-phenoxybenzoate]
Seizures Severity Mean ± SD (grade 0 to IV) (Sprague-Dawley rats): 0.3000 ± 0.6749 | Seizures Mean ± SD (1 = yes, 0 = no) (Sprague-Dawley rats): 0.2000 ± 0.4216 | change in vivo at 20 µmol/kg (Sprague-Dawley rats; [1]): -77.8% | change in vivo at 20 µmol/kg (Sprague-Dawley rats; [2]): -87.5% | % of Control, Acute (mouse): 53.37% | % of Control, Late Phase (mouse): 0.72% | Treated (AUC of licking time), Acute (mouse): 78.55 | Treated (AUC of licking time), Late Phase (mouse): 5.43 | inhibition at 10 µM (Na+K+Cl− co-transporter): 13% | remaining activity at 10 µM (Na+K+Cl− co-transporter): 87.4%

CCCCNc1cc(C(=O)OCOC(=O)C(C)(C)C)cc(S(N)(=O)=O)c1Oc1ccccc1 [NTP-2012, t-Butylcarbonyloxymethyl 3-Aminosulfonyl-5-butylamino-4-phenoxybenzoate]
Seizures Severity Mean ± SD (grade 0 to IV) (Sprague-Dawley rats): 0.2000 ± 0.4216 | Seizures Mean ± SD (1 = yes, 0 = no) (Sprague-Dawley rats): 0.2000 ± 0.4216 | change in vivo at 20 µmol/kg (Sprague-Dawley rats; [1]): -77.8% | change in vivo at 20 µmol/kg (Sprague-Dawley rats; [2]): -91.7% | % of Control, Acute (mouse): 48.5% | % of Control, Late Phase (mouse): 0.49% | Treated (AUC of licking time), Acute (mouse): 75.07 | Treated (AUC of licking time), Late Phase (mouse): 5.08 | inhibition at 10 µM (Na+K+Cl− co-transporter): 35% | remaining activity at 10 µM (Na+K+Cl− co-transporter): 65.5%
